Measurements taken from patent US20230086702A1, “SUBSTITUTED 2-AMINO-PYRAZOLYL-[1,2,4]TRIAZOLO[1,5A]PYRIDINE DERIVATIVES AND USE THEREOF” (The Johns Hopkins University, priority 2019, published 2023).

Assays:
DLK = target: T1, DLK (Homo sapiens, UniProt Q12852); assay: DLK biochemical assay (TR-FRET, MKK7 phosphorylation)
T1 construct: 10 nM DLK, catalytic domain, Carna Biosiences; purchased Carna Biosciences ('Carna Biosiences' [sic])
T1 sequence (Q12852 125-366 limits assumed): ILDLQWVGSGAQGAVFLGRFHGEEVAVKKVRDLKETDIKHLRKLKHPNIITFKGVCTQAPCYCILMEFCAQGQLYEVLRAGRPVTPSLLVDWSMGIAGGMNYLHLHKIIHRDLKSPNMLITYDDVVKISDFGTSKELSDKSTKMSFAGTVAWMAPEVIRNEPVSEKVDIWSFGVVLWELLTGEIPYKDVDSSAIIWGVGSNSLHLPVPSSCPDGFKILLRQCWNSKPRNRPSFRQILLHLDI
Procedure, shortened: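 DLK catalytic domain (10 nM) phosphorylates His-MKK7 (15 nM) at 60 μM ATP for 90 min at RT in pH 7.5 Hepes buffer (final concentrations). Phospho-T275/S277 is detected by TR-FRET (Eu anti-phospho donor, XL665 anti-His acceptor) after 16 h at 37° C (1536 format) or 4° C (384 format).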

LZK = target: T2, LZK (Homo sapiens, UniProt O43283); assay: LZK biochemical assay (TR-FRET, MKK7 phosphorylation)
T2 construct: 10 nM LZK, catalytic domain, Carna Biosiences in assay buffer; purchased Carna Biosciences ('Carna Biosiences' [sic])
T2 sequence (O43283 168-409 limits assumed): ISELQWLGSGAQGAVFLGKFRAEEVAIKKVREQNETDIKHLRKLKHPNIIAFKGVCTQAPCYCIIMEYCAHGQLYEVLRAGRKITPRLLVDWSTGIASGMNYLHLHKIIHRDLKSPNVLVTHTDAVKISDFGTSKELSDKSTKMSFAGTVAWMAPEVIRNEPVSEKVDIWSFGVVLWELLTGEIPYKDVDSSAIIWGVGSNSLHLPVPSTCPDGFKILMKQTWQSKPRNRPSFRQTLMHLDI
Procedure, shortened: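 LZK catalytic domain (10 nM) phosphorylates His-MKK7 (15 nM) with 15 µM ATP, all final, for 90 min at RT in HEPES buffer pH 7.5 with MgCl2. Phospho-T275/S277 detected by TR-FRET (Eu anti-phospho donor, XL665 anti-His acceptor) after 16 h at 32 °C in EDTA stop buffer. Inhibition lowers the 665/Eu ratio.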

Row | SMILES | IC50 (DLK) [nM] | IC50 (LZK) [nM]
1 | Nc1nc2c(-c3cn(CC(F)(F)F)c(=O)cn3)cc(-c3cnn(C(c4ccc(C(F)(F)F)nc4)C4CCOCC4)c3)cn2n1 (single isomer, unassigned) [II-167, 5-[2-Amino-6-(1-{tetrahydro-2H-pyran-4-yl[6-(trifluoromethyl)pyridin-3-yl]methyl}-1H-pyrazol-4-yl)[1,2,4]triazolo[1,5-a]pyridin-8-yl]-1-(2,2,2-trifluoroethyl)pyrazin-2(1H)-one] | 1.3 | 9.9
2 | CC(n1cc(-c2cc(-c3cnn(Cc4ccccc4)c3)cc3nc(N)nn23)cn1)C(F)(F)F (centres unmarked) [II-122] | 39 | 37
3 | COc1cc([C@H](C(C)C)n2cc(-c3cc(-c4cnn(CC(F)(F)F)c4)n4nc(N)nc4c3)cn2)ccn1 [II-138] | 1.7 | 29
4 | Nc1nc2cc(-c3cnn(Cc4ccnc(OC(F)(F)F)c4)c3)cc(-c3cnn(CC(F)(F)F)c3)n2n1 [II-135, 5-[1-(2,2,2-Trifluoroethyl)-1H-pyrazol-4-yl]-7-(1-{[2-(trifluoromethoxy)pyridin-4-yl]methyl}-1H-pyrazol-4-yl)[1,2,4]triazolo[1,5-a]pyridin-2-amine] | 19 | 70
5 | CC[C@@H](c1ccccc1)n1cc(-c2cc(-c3cnn(C(C)C(F)(F)F)c3)c3nc(N)nn3c2)cn1 (mixture of isomers) [II-94, 6-{1-[(15)-1-Phenylpropyl]-1H-pyrazol-4-yl}-8-[1-(1,1,1-trifluoropropan-2-yl)-1H-pyrazol-4-yl][1,2,4]triazolo[1,5-a]pyridin-2-amine] | 22 | 200
6 | CC(C)C(c1ccc(C(F)(F)F)nc1)n1cc(-c2cc(-c3ccc(C4CC4)nc3)n3nc(N)nc3c2)cn1 (single isomer, unassigned) [II-60, 5-(6-Cyclopropylpyridin-3-yl)-7-(1-{2-methyl-1-[6-(trifluoromethyl)pyridin-3-yl]propyl}-1H-pyrazol-4-yl)[1,2,4]triazolo[1,5-a]pyridin-2-amine] | 11 | 7.9
7 | N#CCC(n1cc(-c2cc(-c3cnn(Cc4ccccc4)c3)cc3nc(N)nn23)cn1)C(F)(F)F (centres unmarked) [II-123] | 53 | 150
8 | CC(C)C(c1ccc(C(F)F)nc1)n1cc(-c2cc(-c3ccc(C(F)(F)F)nc3)n3nc(N)nc3c2)cn1 (single isomer, unassigned) [II-66, 7-(1-{1-[6-(Difluoromethyl)pyridin-3-yl]-2-methylpropyl}-1H-pyrazol-4-yl)-5-[6-(trifluoromethyl)pyridin-3-yl][1,2,4]triazolo[1,5-a]pyridin-2-amine] | 45 | 43
9 | Nc1nc2c(-c3ccn(CC(F)(F)F)c(=O)c3)cc(-c3cnn(C(c4ccc(C(F)(F)F)nc4)C4CCOCC4)c3)cn2n1 (single isomer, unassigned) [II-177, 4-[2-Amino-6-(1-{tetrahydro-2H-pyran-4-yl[6-(trifluoromethyl)pyridin-3-yl]methyl}-1H-pyrazol-4-yl)[1,2,4]triazolo[1,5-a]pyridin-8-yl]-1-(2,2,2-trifluoroethyl)pyridin-2(1H)-one] | 10 | 33
10 | Nc1nc2c(-c3ccn(CC(F)F)c(=O)c3)cc(-c3cnn(C(c4ccc(C(F)(F)F)nc4)C4CCOCC4)c3)cn2n1 (single isomer, unassigned) [II-173, 4-[2-Amino-6-(1-{tetrahydro-2H-pyran-4-yl[6-(trifluoromethyl)pyridin-3-yl]methyl}-1H-pyrazol-4-yl)[1,2,4]triazolo[1,5-a]pyridin-8-yl]-1-(2,2-difluoroethyl)pyridin-2(1H)-one] | 11 | 25
11 | CC(C)C(c1ccc(C(F)(F)F)nc1)n1cc(-c2cc(-c3ccc(C4CC4)nc3)n3nc(N)nc3c2)cn1 (racemic) [II-58, 5-(6-Cyclopropylpyridin-3-yl)-7-(1-{2-methyl-1-[6-(trifluoromethyl)pyridin-3-yl]propyl}-1H-pyrazol-4-yl)[1,2,4]triazolo[1,5-a]pyridin-2-amine] | 21 | 22
12 | CCC(c1ccc(C(F)(F)F)cc1)n1cc(-c2cc(-c3cnn(C4CCCC4)c3)n3nc(N)nc3c2)cn1 (centres unmarked) [II-132] | 71 | 120
13 | CCC(c1ccc(OC(F)(F)F)nc1)n1cc(-c2cc(-c3ccc(=O)n(CC(F)(F)F)c3)c3nc(N)nn3c2)cn1 (single isomer, unassigned) [II-164, 5-[2-Amino-6-(1-{1-[6-(trifluoromethoxy)pyridin-3-yl]propyl}-1H-pyrazol-4-yl)[1,2,4]triazolo[1,5-a]pyridin-8-yl]-1-(2,2,2-trifluoroethyl)pyridin-2(1H)-one] | 3.5 | 17
14 | CCC(c1ccc(C(F)F)nc1)n1cc(-c2cc(-c3ccc(C4CC4)nc3)n3nc(N)nc3c2)cn1 (single isomer, unassigned) [II-68, 5-(6-Cyclopropylpyridin-3-yl)-7-(1-{1-[6-(difluoromethyl)pyridin-3-yl]propyl}-1H-pyrazol-4-yl)[1,2,4]triazolo[1,5-a]pyridin-2-amine] | 36 | 86
15 | Nc1nc2c(-c3ccc(=O)n(CC(F)(F)F)c3)cc(-c3cnn(C(c4ccc(C(F)(F)F)nc4)C4CCOCC4)c3)cn2n1 (centres unmarked) [II-160] | 1.5 | 5.9
16 | CCC(c1ccc(C(F)F)nc1)n1cc(-c2cc(-c3ccc(C(F)(F)F)nc3)n3nc(N)nc3c2)cn1 (single isomer, unassigned) [II-63, 7-(1-{1-[6-(Difluoromethyl)pyridin-3-yl]propyl}-1H-pyrazol-4-yl)-5-[6-(trifluoromethyl)pyridin-3-yl][1,2,4]triazolo[1,5-a]pyridin-2-amine] | 97 | 51
17 | Nc1nc2cc(-c3cnn(C(c4ccc(C(F)(F)F)nc4)C4CCOCC4)c3)cc(-c3ccc(=O)n(CC(F)F)c3)n2n1 (single isomer, unassigned) [II-186, 5-[2-Amino-7-(1-{tetrahydro-2H-pyran-4-yl[6-(trifluoromethyl)pyridin-3-yl]methyl}-1H-pyrazol-4-yl)[1,2,4]triazolo[1,5-a]pyridin-5-yl]-1-(2,2-difluoroethyl)pyridin-2(1H)-one] | 4.1 | 4.5
18 | CCC(c1ccc(C(F)(F)F)nc1)n1cc(-c2cc(-c3ccc(=O)n(C(F)F)c3)n3nc(N)nc3c2)cn1 (centres unmarked) [II-179] | 12 | 8
19 | CCC(c1ccc(C(F)(F)F)nc1)n1cc(-c2cc(-c3cc(CO)ccc3Cl)c3nc(N)nn3c2)cn1 (single isomer, unassigned) [II-3, {3-[2-Amino-6-(1-{1-[6-(trifluoromethyl)pyridin-3-yl]propyl}-1H-pyrazol-4-yl)[1,2,4]triazolo[1,5-a]pyridin-8-yl]-4-chlorophenyl}methanol] | 12 | 6.4
20 | CC(C)C(c1ccc(C(F)F)nc1)n1cc(-c2cc(-c3ccc(C4CC4)nc3)n3nc(N)nc3c2)cn1 (racemic) [II-52, 5-(6-Cyclopropylpyridin-3-yl)-7-(1-{1-[6-(difluoromethyl)pyridin-3-yl]-2-methylpropyl}-1H-pyrazol-4-yl)[1,2,4]triazolo[1,5-a]pyridin-2-amine] | 6 | 19
21 | CC(C)C(c1ccc(C(F)(F)F)nc1)n1cc(-c2cc(-c3cnn(CC(F)(F)F)c3)n3nc(N)nc3c2)cn1 (single isomer, unassigned) [II-141, 7-(1-{2-Methyl-1-[6-(trifluoromethyl)pyridin-3-yl]propyl}-1H-pyrazol-4-yl)-5-[1-(2,2,2-trifluoroethyl)-1H-pyrazol-4-yl][1,2,4]triazolo[1,5-a]pyridin-2-amine] | 23 | 140
22 | CCC(c1ccc(C(F)(F)F)nc1)n1cc(-c2cc(-c3ccnc(OC(F)F)c3)c3nc(N)nn3c2)cn1 (racemic) [II-25, 8-[2-(Difluoromethoxy)pyridin-4-yl]-6-(1-{1-[6-(trifluoromethyl)pyridin-3-yl]propyl}-1H-pyrazol-4-yl)[1,2,4]triazolo[1,5-a]pyridin-2-amine] | 130 | 82
23 | Nc1nc2cc(-c3cnn(C(c4ccc(C(F)(F)F)nc4)C4CCOCC4)c3)cc(-c3ccc(=O)n(C(F)F)c3)n2n1 (single isomer, unassigned) [II-183, 5-[2-Amino-7-(1-{tetrahydro-2H-pyran-4-yl[6-(trifluoromethyl)pyridin-3-yl]methyl}-1H-pyrazol-4-yl)[1,2,4]triazolo[1,5-a]pyridin-5-yl]-1-(difluoromethyl)pyridin-2(1H)-one] | 22 | 19
24 | CC(C)C(c1ccc(C(F)(F)F)nc1)n1cc(-c2cc(-c3cnn(CC4CC4(F)F)c3)n3nc(N)nc3c2)cn1 (centres unmarked) [II-142] | 8.4 | 12
25 | Nc1nc2cc(-c3cnn(Cc4ccccc4)c3)cc(-c3cnn(C4CCOC4)c3)n2n1 (centres unmarked) [II-125] | 17 | 160
